Experimental data published in patent US20200376287A1, “METHODS FOR INCREASING TGF-B SIGNALING” (TECHNION RESEARCH & DEVELOPMENT FOUNDATION LIMITED, priority 2019, published 2020).

Test system: neurons in the mid-posterior insular cortex (mpIC)
Assay: Arc expression in the mpIC of Arc-dVenus reporter mice after oral consumption
Assay type: in vivo
Conditions: for response of neurons in the mpIC (Arc expression) to oral consumption: Arc-dVenus reporter mice, compared with water
Protocol: The expression of Arc was evaluated by immunohistochemical staining for GFP (green) to amplify the signal of dVenus and co-localized with DAPI nuclear staining (blue). Dotted lines are based on Allen Brain Atlas and depict the cytoarchitectonic layers of the insular cortex (granular insula; GI, dysgranular insula; DI, agranular insula; AI) and the claustrum (CI). Scale bar, 200 μm. (1B) A graph showing manual quantification of Arc-positive cells that were identified by GFP and DAPI double-positive staining per region of interest (ROI=[…]) in mice that were exposed to water or OVA. Student's t-test; mean±s.e.m; n=3, 4; **P<0.01. (1C) Maps showing the location of the insular cortex in mice (upper left). Arc-expressing neurons following oral consumption of OVA were found in the mid-posterior region of the insula (upper right) that comprises both gustatory and visceral cortices (lower panel). (1D) A location map and micrographs showing validation of the injection site in the mpIC. Representative image describing the expression of the inhibiting form of designer receptors exclusively activated by designer drugs (DREADDs; Gi) in neurons following stereotactic injection of a viral vector (AAV8-hSyn-hM4Di (Gi)-mCherry), in the GI and DI layers of the mpIC ((0.14-0.18) mm Anterior-Posterior (AP); (3.6-3.8) mm Medial-Lateral (ML); (2.5-2.6) mm Dorsal-Ventral (DV)).
FIGS. 5A-5F include fluorescent micrographs, graphs, and location maps, showing representation of aversive information in the mpIC. […] The expression of Arc was evaluated as described in FIG. 1A. Dotted lines are based on Allen Brain Atlas, and depict the cytoarchitectonic layers of the insular cortex (granular insula; GI, dysgranular insula; DI, agranular insula; AI) and the claustrum (CI). Scale bar, 200 μm. (5B) Manual quantification of Arc-positive cells in the region of interest (ROI=[…]) was performed as described in FIG. 1A in mice that consumed water or denatonium benzoate. Student's t-test; mean±s.e.m; n=3, 5; *P<0.05. (5C) The images show Arc expression in the mpIC of Arc-dVenus reporter mice that were exposed to OVA (left panel) or denatonium benzoate (right panel). The numbers (1-6) represent the layers of the cerebral cortex. Scale bar, 200 μm. (5D) Graphs represent the difference in total Arc expression (left) and the distribution of Arc-positive cells in the 3 cytoarchitectonic layers of the insular cortex (GI, DI, and AI) following exposure of mice to OVA or denatonium benzoate. […] (5F) Graphs depict the total difference in Arc-positive cells in the ⅔ layer of the cerebral cortex (left) of the mpIC and expression of Arc in this layer divided by the insular layers (GI, DI, and AI). Student's t-test; mean±s.e.m; n=3, 5; *P<0.05, **P<0.01.
Thus far, the inventors exposed the mice only to positive appetitive signals, however, whether the mpIC also responds to aversive information that can inform about the presence of pathogens, left unclear. To answer this question the inventors used the Arc reporter mice, except this time they were exposed to the bitter substance denatonium benzoate.

Row | Molecule | response of neurons in the mpIC (Arc expression) to oral consumption | Arc-positive cells in the granular layer (GI) of the mpIC (denatonium benzoate (bitter) compared to OVA) | total number of activated neurons in the mpIC (denatonium benzoate compared to OVA) | Arc expression in the AI layer of the mpIC (OVA-consuming mice compared to mice exposed to denatonium benzoate)
1 | CC[N+](CC)(CC(=O)Nc1c(C)cccc1C)Cc1ccccc1 [denatonium benzoate] | neurons in the mpIC also respond | less Arc-positive cells | no significant difference | –
2 | ovalbumin (protein, UniProt P01012 2-386, looked up, orally consumed novel innocuous food antigen) Ovalbumin: GSIGAASMEFCFDVFKELKVHHANENIFYCPIAIMSALAMVYLGAKDSTRTQINKVVRFDKLPGFGDSIEAQCGTSVNVHSSLRDILNQITKPNDVYSFSLASRLYAEERYPILPEYLQCVKELYRGGLEPINFQTAADQARELINSWVESQTNGIIRNVLQPSSVDSQTAMVLVNAIVFKGLWEKAFKDEDTQAMPFRVTEQESKPVQMMYQIGLFRVASMASEKMKILELPFASGTMSMLVLLPDEVSGLEQLESIINFEKLTEWTSSNVMEERKIKVYLPRMKMEEKYNLTSVLMAMGITDVFSSSANLSGISSAESLKISQAVHAAHAEINEAGREVVGSAEAGVDAASVSEEFRADHPFLFCIKHIATNAVLFFGRCVSP | respond to oral consumption of OVA | – | – | lower expression
